From the supplement of paper PMC10307832

Tests used:
Assay in all cases: relative viability (nuclei count vs DMSO), 5 days (fraction); higher = more cells survive
NCI-H460 = tested on: NCI-H460
How it was run: (§1)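 Dosing by pin tool came one day after lung cancer cell lines were seeded in 1536-well plates, using either one drug or a fixed anchor-drug dose plus five library-drug doses (not always all listed) in √10 steps. After 5 days, nuclei were counted on 4× images. Relative viability is treated-well nuclei count divided by vehicle-well nuclei count, and values are medians of duplicate plates.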

NCI-H1395 = tested on: NCI-H1395
How it was run: as §1

NCI-H1944 = tested on: NCI-H1944
How it was run: as §1

NCI-H3122 = tested on: NCI-H3122
How it was run: as §1

NCI-H2170 = tested on: NCI-H2170
How it was run: as §1

NCI-H1651 = tested on: NCI-H1651
How it was run: as §1

NCI-H2405 = tested on: NCI-H2405
How it was run: as §1

LC-2-ad = tested on: LC-2-ad
How it was run: as §1

RERF-LC-KJ = tested on: RERF-LC-KJ
How it was run: as §1

HCC-78 = tested on: HCC-78
How it was run: as §1

ChaGo-K-1 = tested on: ChaGo-K-1
How it was run: as §1

UMC-11 = tested on: UMC-11
How it was run: as §1

LOU-NH91 = tested on: LOU-NH91
How it was run: as §1

PC-3 [JPC-3] = tested on: PC-3 [JPC-3]
How it was run: as §1

NCI-H2087 = tested on: NCI-H2087
How it was run: as §1

NCI-H1755 = tested on: NCI-H1755
How it was run: as §1

NCI-H1793 = tested on: NCI-H1793
How it was run: as §1

LU99A = tested on: LU99A
How it was run: as §1

ABC-1 = tested on: ABC-1
How it was run: as §1

HCC-366 = tested on: HCC-366
How it was run: as §1

Nc1ccn([C@@H]2O[C@H](CO)[C@@H](O)[C@@H]2O)c(=O)n1 [Cytarabine] + Nc1ncn([C@H]2C[C@H](O)[C@@H](CO)O2)c(=O)n1 [Decitabine] (partner 2 µM)
relative viability (NCI-H460; first compound 0.005 µM): 0.451 | relative viability (NCI-H460; first compound 0.01581 µM): 0.406 | relative viability (NCI-H460; first compound 0.05 µM): 0.336 | relative viability (NCI-H460; first compound 0.1581 µM): 0.0621 | relative viability (NCI-H460; first compound 0.5 µM): 0.0458 | relative viability (NCI-H1395; first compound 0.005 µM): 0.634 | relative viability (NCI-H1395; first compound 0.01581 µM): 0.688 | relative viability (NCI-H1395; first compound 0.05 µM): 0.529 | relative viability (NCI-H1395; first compound 0.1581 µM): 0.368 | relative viability (NCI-H1395; first compound 0.5 µM): 0.364 | relative viability (NCI-H1944; first compound 0.005 µM): 0.335 | relative viability (NCI-H1944; first compound 0.01581 µM): 0.347 | relative viability (NCI-H1944; first compound 0.05 µM): 0.319 | relative viability (NCI-H1944; first compound 0.1581 µM): 0.194 | relative viability (NCI-H1944; first compound 0.5 µM): 0.151 | relative viability (NCI-H3122; first compound 0.005 µM): 0.459 | relative viability (NCI-H3122; first compound 0.01581 µM): 0.383 | relative viability (NCI-H3122; first compound 0.05 µM): 0.374 | relative viability (NCI-H3122; first compound 0.1581 µM): 0.228 | relative viability (NCI-H3122; first compound 0.5 µM): 0.26 | relative viability (NCI-H2170; first compound 0.005 µM): 0.393 | relative viability (NCI-H2170; first compound 0.01581 µM): 0.346 | relative viability (NCI-H2170; first compound 0.05 µM): 0.355 | relative viability (NCI-H2170; first compound 0.1581 µM): 0.254 | relative viability (NCI-H2170; first compound 0.5 µM): 0.241 | relative viability (NCI-H1651; first compound 0.005 µM): 0.646 | relative viability (NCI-H1651; first compound 0.01581 µM): 0.493 | relative viability (NCI-H1651; first compound 0.05 µM): 0.167 | relative viability (NCI-H1651; first compound 0.1581 µM): 0.281 | relative viability (NCI-H1651; first compound 0.5 µM): 0.213 | relative viability (NCI-H2405; first compound 0.005 µM): 0.666 | relative viability (NCI-H2405; first compound 0.01581 µM): 0.569 | relative viability (NCI-H2405; first compound 0.05 µM): 0.503 | relative viability (NCI-H2405; first compound 0.1581 µM): 0.342 | relative viability (NCI-H2405; first compound 0.5 µM): 0.321 | relative viability (LC-2-ad; first compound 0.005 µM): 0.727 | relative viability (LC-2-ad; first compound 0.01581 µM): 0.682 | relative viability (LC-2-ad; first compound 0.05 µM): 0.759 | relative viability (LC-2-ad; first compound 0.1581 µM): 0.69 | relative viability (LC-2-ad; first compound 0.5 µM): 0.499 | relative viability (RERF-LC-KJ; first compound 0.005 µM): 0.677 | relative viability (RERF-LC-KJ; first compound 0.01581 µM): 0.568 | relative viability (RERF-LC-KJ; first compound 0.05 µM): 0.475 | relative viability (RERF-LC-KJ; first compound 0.1581 µM): 0.342 | relative viability (RERF-LC-KJ; first compound 0.5 µM): 0.29 | relative viability (HCC-78; first compound 0.005 µM): 0.715 | relative viability (HCC-78; first compound 0.01581 µM): 0.668 | relative viability (HCC-78; first compound 0.05 µM): 0.587 | relative viability (HCC-78; first compound 0.1581 µM): 0.492 | relative viability (HCC-78; first compound 0.5 µM): 0.44 | relative viability (ChaGo-K-1; first compound 0.005 µM): 0.475 | relative viability (ChaGo-K-1; first compound 0.01581 µM): 0.413 | relative viability (ChaGo-K-1; first compound 0.05 µM): 0.339 | relative viability (ChaGo-K-1; first compound 0.1581 µM): 0.252 | relative viability (ChaGo-K-1; first compound 0.5 µM): 0.225 | relative viability (UMC-11; first compound 0.005 µM): 0.547 | relative viability (UMC-11; first compound 0.01581 µM): 0.521 | relative viability (UMC-11; first compound 0.05 µM): 0.328 | relative viability (UMC-11; first compound 0.1581 µM): 0.32 | relative viability (UMC-11; first compound 0.5 µM): 0.306 | relative viability (LOU-NH91; first compound 0.005 µM): 0.751 | relative viability (LOU-NH91; first compound 0.01581 µM): 0.742 | relative viability (LOU-NH91; first compound 0.05 µM): 0.696 | relative viability (LOU-NH91; first compound 0.1581 µM): 0.545 | relative viability (LOU-NH91; first compound 0.5 µM): 0.491 | relative viability (PC-3 [JPC-3]; first compound 0.005 µM): 0.824 | relative viability (PC-3 [JPC-3]; first compound 0.01581 µM): 0.763 | relative viability (PC-3 [JPC-3]; first compound 0.05 µM): 0.581 | relative viability (PC-3 [JPC-3]; first compound 0.1581 µM): 0.468 | relative viability (PC-3 [JPC-3]; first compound 0.5 µM): 0.507 | relative viability (NCI-H2087; first compound 0.005 µM): 0.316 | relative viability (NCI-H2087; first compound 0.01581 µM): 0.225 | relative viability (NCI-H2087; first compound 0.05 µM): 0.303 | relative viability (NCI-H2087; first compound 0.1581 µM): 0.109 | relative viability (NCI-H2087; first compound 0.5 µM): 0.133 | relative viability (NCI-H1755; first compound 0.005 µM): 0.705 | relative viability (NCI-H1755; first compound 0.01581 µM): 0.619 | relative viability (NCI-H1755; first compound 0.05 µM): 0.659 | relative viability (NCI-H1755; first compound 0.1581 µM): 0.472 | relative viability (NCI-H1755; first compound 0.5 µM): 0.424 | relative viability (NCI-H1793; first compound 0.005 µM): 0.585 | relative viability (NCI-H1793; first compound 0.01581 µM): 0.35 | relative viability (NCI-H1793; first compound 0.05 µM): 0.336 | relative viability (NCI-H1793; first compound 0.1581 µM): 0.212 | relative viability (NCI-H1793; first compound 0.5 µM): 0.237 | relative viability (LU99A; first compound 0.005 µM): 0.863 | relative viability (LU99A; first compound 0.01581 µM): 0.781 | relative viability (LU99A; first compound 0.05 µM): 0.93 | relative viability (LU99A; first compound 0.1581 µM): 0.925 | relative viability (LU99A; first compound 0.5 µM): 0.823 | relative viability (ABC-1; first compound 0.005 µM): 1.13 | relative viability (ABC-1; first compound 0.01581 µM): 1.02 | relative viability (ABC-1; first compound 0.05 µM): 0.925 | relative viability (ABC-1; first compound 0.1581 µM): 0.786 | relative viability (ABC-1; first compound 0.5 µM): 0.611 | relative viability (HCC-366; first compound 0.005 µM): 0.402 | relative viability (HCC-366; first compound 0.01581 µM): 0.292 | relative viability (HCC-366; first compound 0.05 µM): 0.231 | relative viability (HCC-366; first compound 0.1581 µM): 0.0925 | relative viability (HCC-366; first compound 0.5 µM): 0.0894
